melting point: 130 °C
SMILES: COC(=O)c1cccc(-c2nnc(-c3ccccc3[N+](=O)[O-])cc2Cc2ccccc2)c1

Reference: patent US7579350B2, “Scaffolds for α-helix mimicry” (The Scripps Research Institute, priority 2005, dated 2009)
